One may read the pIC50 as −log10 of the IC50, conventionally taken in molar units. Read a low pIC50 as a high IC50.

pIC50: −log10 of the molar value.

The target of the test is T1, partially purified rat brain farnesyl protein transferase (FPT) (Rattus norvegicus, UniProt Q02293+Q04631).
T1 construct: partially purified rat brain farnesyl protein transferase (FPT); from tissue; host or cells: rat brain
The test can be described thus: In vitro enzyme assay: inhibition of Ras-CVLS farnesylation by farnesyl protein transferase. It is filed as biochemical. The protocol:
1. In vitro enzyme assays: FPT IC50 (inhibition of farnesyl protein transferase, in vitro enzyme assay) are determined by the methods disclosed in WO/10515 or WO 95110516.
The compound `COc1cc(C)cc2c1C(=C1CCN(C(=O)Cc3cc[n+]([O-])cc3)CC1)c1ncc(Br)cc1CC2` [Example 8, (+,−)-4-(3-bromo-10-methoxy-8-methyl-5,6-dihydro-11H-benzo[5,6]cyclohepta[1,2-b]pyridin-11-ylidene)-1-(4-pyridinylacetyl)piperidine N1-oxide] had a negative logarithm of the IC50 (pIC50) of 7.52.

Compound `C=Cc1cnc2c(c1)CCc1cc(C)cc(OC)c1C2C1CCN(C(=O)Cc2cc[n+]([O-])cc2)CC1` (centres unmarked) [Example 27, 4-(3-Ethenyl-6,11-dihydro-10-methoxy-8-methyl-5H-benzo[5,6]cyclohepta[1,2-b]pyridin-11-yl)-1-(4-pyridinylacetyl)piperidine N1-Oxide] showed a pIC50 of 7.23.

The compound `C=Cc1cnc2c(c1)CCc1cc(C)cc(OC)c1C2C1CCN(S(C)(=O)=O)CC1` (centres unmarked) [Example 28, 4-(3-Ethenyl-6,11-dihydro-10-methoxy-8-methyl-5H-benzo[5,6]cyclohepta[1,2-b]pyridin-11-yl)-1-(methylsulfonyl)piperidine] gave a pIC50 of 6.88.

The compound `CCc1cnc2c(c1)CCc1cc(C)cc(OC)c1C2C1CCN(C(=O)Cc2cc[n+]([O-])cc2)CC1` (centres unmarked) [Example 29, 4-(3-Ethyl-6,11-dihydro-10-methoxy-8-methyl-5H-5 benzo[5,6]cyclohepta[1,2-b]pyridin-11-yl)-1-(4-pyridinylacetyl)piperidine, N1-Oxide] had a pIC50 of 7.13.

In turn, `Cc1cc(Br)c2c(c1)CCc1cc(Br)cnc1C2=C1CCN(C(=O)Cc2cc[n+]([O-])cc2)CC1` [Example 37, -(3-Bromo-5,6-dihydro-10-bromo-8-methyl-11H-benzo[5,6]cyclohepta[1,2-b]pyridin-11-ylidene)-1-(4-pyridinylacetyl)piperidine N1-Oxide] gave a pIC50 of 8.27.

The values are drawn from patent US6440989B2, “Phenyl-substituted tricyclic inhibitors of farnesyl-protein transferase” (Schering Corporation, priority 1997, dated 2002).
